Measured values: ChEMBL document CHEMBL4177587, “SIRT6 inhibitors with salicylate-like structure show immunosuppressive and chemosensitizing effects” (Bioorg Med Chem, 2017)
Converted amounts (≈) assume the structure as drawn. The source made the active and inactive calls. The calls are words filed in the database; no cut-off is given here.

Key:
[1] = molecular target: T1, NAD-dependent protein deacylase sirtuin-6 (Homo sapiens, UniProt Q8N6T7); assay: Inhibition of human recombinant SIRT6 assessed as reduction in NAD+-dependent deacetylase activity at 200 uM using Arg-His-Lys-Lys(epsilon-acetyl)-AMC substrate and NAD+ by fluorescence based assay
T1 sequence (Q8N6T7 whole entry): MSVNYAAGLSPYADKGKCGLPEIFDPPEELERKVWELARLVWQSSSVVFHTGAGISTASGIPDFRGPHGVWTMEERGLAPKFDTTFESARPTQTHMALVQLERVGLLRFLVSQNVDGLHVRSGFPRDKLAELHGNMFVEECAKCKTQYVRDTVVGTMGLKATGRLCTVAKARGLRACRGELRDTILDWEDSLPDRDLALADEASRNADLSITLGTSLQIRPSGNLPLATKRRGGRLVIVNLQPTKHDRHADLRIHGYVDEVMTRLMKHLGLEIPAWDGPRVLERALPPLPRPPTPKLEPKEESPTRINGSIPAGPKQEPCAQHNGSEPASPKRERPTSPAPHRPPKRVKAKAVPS

[2] = molecular target: T2, NAD-dependent protein deacetylase sirtuin-1 (Homo sapiens, UniProt Q96EB6); assay: Inhibition of human recombinant SIRT1 assessed as reduction in NAD+-dependent deacetylase activity using Arg-His-Lys-Lys(epsilon-acetyl)-AMC substrate and NAD+ by fluorescence based assay
T2 sequence (Q96EB6 whole entry): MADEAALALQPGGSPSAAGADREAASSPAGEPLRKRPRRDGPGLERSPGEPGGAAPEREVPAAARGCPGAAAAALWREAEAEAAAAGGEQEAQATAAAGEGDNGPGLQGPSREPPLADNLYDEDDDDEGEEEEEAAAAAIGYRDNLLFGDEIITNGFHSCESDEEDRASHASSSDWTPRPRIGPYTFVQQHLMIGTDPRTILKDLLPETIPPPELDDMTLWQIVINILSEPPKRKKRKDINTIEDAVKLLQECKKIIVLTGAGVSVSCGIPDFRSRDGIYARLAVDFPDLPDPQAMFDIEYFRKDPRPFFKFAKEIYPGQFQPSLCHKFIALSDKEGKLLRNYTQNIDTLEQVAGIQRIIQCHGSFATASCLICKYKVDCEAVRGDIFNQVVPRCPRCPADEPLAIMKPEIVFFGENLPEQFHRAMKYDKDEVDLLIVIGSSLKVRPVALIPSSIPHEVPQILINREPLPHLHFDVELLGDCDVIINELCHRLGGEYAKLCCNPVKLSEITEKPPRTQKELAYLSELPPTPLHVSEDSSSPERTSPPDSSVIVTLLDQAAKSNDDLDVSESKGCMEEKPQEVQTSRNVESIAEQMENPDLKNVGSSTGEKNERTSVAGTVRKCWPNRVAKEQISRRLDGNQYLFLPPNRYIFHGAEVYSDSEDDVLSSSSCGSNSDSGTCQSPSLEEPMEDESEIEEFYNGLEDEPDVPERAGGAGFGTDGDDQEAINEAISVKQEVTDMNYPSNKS

[3] = molecular target: T3, NAD-dependent protein deacetylase sirtuin-2 (Homo sapiens, UniProt Q8IXJ6); assay: Inhibition of human recombinant SIRT2 assessed as reduction in NAD+-dependent deacetylase activity using Arg-His-Lys-Lys(epsilon-acetyl)-AMC substrate and NAD+ by fluorescence based assay
T3 sequence (Q8IXJ6 whole entry): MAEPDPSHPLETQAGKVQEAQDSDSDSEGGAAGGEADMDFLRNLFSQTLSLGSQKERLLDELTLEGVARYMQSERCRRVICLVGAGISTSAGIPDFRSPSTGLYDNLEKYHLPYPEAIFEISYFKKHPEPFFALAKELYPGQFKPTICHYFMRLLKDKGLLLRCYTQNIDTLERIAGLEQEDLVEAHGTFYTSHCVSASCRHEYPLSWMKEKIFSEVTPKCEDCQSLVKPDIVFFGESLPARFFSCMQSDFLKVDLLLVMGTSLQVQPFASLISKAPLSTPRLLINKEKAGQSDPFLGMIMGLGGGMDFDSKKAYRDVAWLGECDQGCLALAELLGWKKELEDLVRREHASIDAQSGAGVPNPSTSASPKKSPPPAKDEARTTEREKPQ

[4] = molecular target: T1, NAD-dependent protein deacylase sirtuin-6; assay: Competitive inhibition of human recombinant SIRT6 assessed as reduction in NAD+-dependent deacetylase activity at 50 uM using fixed Arg-His-Lys-Lys(epsilon-acetyl)-AMC substrate and varying NAD+ by fluorescence based assay based double-reciprocal plot
[5] = molecular target: T1, NAD-dependent protein deacylase sirtuin-6; assay: Competitive inhibition of human recombinant SIRT6 assessed as reduction in NAD+-dependent deacetylase activity at 50 uM using varying Arg-His-Lys-Lys(epsilon-acetyl)-AMC substrate and fixed NAD+ by fluorescence based assay based double-reciprocal plot
[6] = molecular target: T1, NAD-dependent protein deacylase sirtuin-6; assay: Inhibition of SIRT6 in human BxPC3 cells assessed as increase in H3K9 acetylation by immunoblotting relative to untreated control; assay type: cell-based; parameters: concentration or dose not given beside the values
[7] = molecular target: T1, NAD-dependent protein deacylase sirtuin-6; assay: Inhibition of SIRT6 in human BxPC3 cells assessed as increase in 2-NBDG uptake at 100 uM incubated for 18 hrs by glucose uptake assay; assay type: cell-based
[8] = molecular target: T1, NAD-dependent protein deacylase sirtuin-6; assay: Inhibition of SIRT6 in human BxPC3 cells assessed as reduction in TNFalpha production at 100 uM incubated for 18 hrs by ELISA method; assay type: cell-based
[9] = molecular target: T1, NAD-dependent protein deacylase sirtuin-6; assay: Inhibition of SIRT6 in human BxPC3 cells assessed as potentiation of gemcitabine-induced cytotoxicity at 30 uM incubated for 72 hrs by Cell-titer96 aqueous one assay; assay type: cell-based
BXPC-3 = assay: Toxicity in human BxPC3 cells assessed as reduction in cell viability at 30 uM incubated for 72 hrs by Cell-titer96 aqueous one assay; assay type: cell-based; conditions: bxpc-3, 72 h
[10] = Ionisation constant, pKa of the compound; assay type: physicochemical
[11] = Partition coefficient, log P of the compound; assay type: physicochemical; conditions: octanol/water
[12] = Intrinsic aqueous solubility in surfactant in 9% Tween 80; assay type: physicochemical; conditions: 9% Tween 80 surfactant solution
[13] = Intrinsic aqueous solubility in 1.96% Soluplus solution; assay type: physicochemical
[14] = Intrinsic aqueous solubility in 23% Captisol; assay type: physicochemical
[15] = Intrinsic aqueous solubility in PBS at pH 7.4; assay type: physicochemical
[16] = Fraction unbound in human plasma at 1 ug/ml by rapid equilibrium dialysis; assay type: ADME, cell-free
[17] = Fraction unbound in human plasma at 10 ug/ml by rapid equilibrium dialysis; assay type: ADME, cell-free
[18] = Fraction unbound in mouse plasma at 1 ug/ml by rapid equilibrium dialysis; assay type: ADME, cell-free
[19] = Fraction unbound in mouse plasma at 10 ug/ml by rapid equilibrium dialysis; assay type: ADME, cell-free
[20] = Stability in mouse plasma assessed as half life at 1 uM at 37 degC measured after 4 hrs; assay type: ADME, cell-free; conditions: 4 h, 1 µM
[21] = AUC (0 to t) in ICR mouse at 5 mg/kg, ip by LC-MS/MS method; assay type: ADME, organism-based; conditions: in vivo
[22] = AUC (0 to infinity) in ICR mouse at 5 mg/kg, ip by LC-MS/MS method; assay type: ADME, organism-based; parameters: dose 5 mg/kg, route intraperitoneal, time infinity; conditions: in vivo
[23] = MRT (0 to infinity) in ICR mouse at 5 mg/kg, ip by LC-MS/MS method; assay type: ADME, organism-based; conditions: in vivo
[24] = Terminal half life in ICR mouse at 5 mg/kg, ip by LC-MS/MS method; assay type: ADME, organism-based; conditions: in vivo, read-out: beta t1/2 (converted)
[25] = Tmax in ICR mouse at 5 mg/kg, ip by LC-MS/MS method; assay type: ADME, organism-based; conditions: in vivo
[26] = Cmax in ICR mouse at 5 mg/kg, ip by LC-MS/MS method; assay type: ADME, organism-based; parameters: dose 5 mg/kg, route intraperitoneal; conditions: in vivo
Mus musculus = assay: Toxicity in ICR mouse assessed as induction of abnormalities at 5 mg/kg, ip; assay type: organism-based; conditions: in vivo
[27] = molecular target: T1, NAD-dependent protein deacylase sirtuin-6; assay: Inhibition of SIRT6 in human PBMC cells assessed as increase in H3K9 acetylation at 200 uM incubated for 24 hrs by immunoblotting relative to untreated control; assay type: cell-based
[28] = molecular target: T1, NAD-dependent protein deacylase sirtuin-6; assay: Inhibition of SIRT6 in human PBMC cells assessed as increase in H3K56 acetylation at 200 uM incubated for 24 hrs by immunoblotting relative to untreated control; assay type: cell-based
[29] = molecular target: T1, NAD-dependent protein deacylase sirtuin-6; assay: Inhibition of SIRT6 in human PBMC cells assessed as reduction in staphylococcal enterotoxin B-induced cell proliferation at 200 uM incubated for 120 hrs by ATPlite assay; assay type: cell-based
[30] = molecular target: T1, NAD-dependent protein deacylase sirtuin-6; assay: Inhibition of SIRT6 in human PBMC cells assessed as reduction in PHA-induced cell proliferation at 200 uM incubated for 120 hrs by ATPlite assay; assay type: cell-based
[31] = molecular target: T1, NAD-dependent protein deacylase sirtuin-6; assay: Inhibition of SIRT6 in human PBMC cells assessed as reduction in staphylococcal enterotoxin B-induced cell proliferation by measuring CFSE signal level at 200 uM incubated for 120 hrs by CFSE staining based flow FACS assay (reference value: 65%); parameters: scale not given: the % may be the effect or the level left
[32] = molecular target: T1, NAD-dependent protein deacylase sirtuin-6; assay: Inhibition of SIRT6 in human PBMC cells assessed as reduction in PHA-induced cell proliferation by measuring CFSE signal level at 200 uM incubated for 120 hrs by CFSE staining based flow FACS assay (reference value: 66%); parameters: scale not given: the % may be the effect or the level left

Compound `O=C(Nc1ccc(C(=O)O)c(O)c1)c1ccc(N2C(=O)CCS2(=O)=O)cc1` has an inhibition [1] of 100%.
`O=C(Nc1ccc(O)c(C(=O)O)c1)c1ccc(N2C(=O)CCS2(=O)=O)cc1` gave an inhibition [1] of 89%.
`Cc1cc(O)c(C(=O)O)cc1S(=O)(=O)Nc1ccc(NC(=O)NCC2CCCO2)cc1` (centres undefined) gave an inhibition [1] of 17%.
For `O=C(Nc1ccc(C(=O)O)c(O)c1)c1cccc(N2C(=O)CCS2(=O)=O)c1`, the inhibition [1] was 44%.
In the case of `O=C(O)c1cccc(NC(=O)c2cccc(NC(=O)C3CCCO3)c2)c1` (centres undefined), the inhibition [1] is reported as “inactive”.
For `O=C(Nc1ccc(O)c(C(=O)O)c1)c1cccc(N2C(=O)CCS2(=O)=O)c1`, the inhibition [1] was 54%.
Compound `Cc1ccc(C(=O)O)cc1NC(=O)c1cccc(NC(=O)c2ccco2)c1` has an inhibition [1] of 4%.
`O=C(O)c1cccc(NC(=O)c2cccc(NC(=O)c3cccs3)c2)c1` showed an inhibition [1] of 39%.
In the case of `O=C(Nc1ccc(O)c(C(=O)O)c1)c1ccc(NC(=O)c2ccco2)cc1`, the inhibition [1] is reported as 100%, the IC50 [2] is reported as 783 µM and the IC50 [3] is reported as 453 µM. The inhibition [4] was “Active”, the inhibition [5] was “Active” and the fold change (FC) [6] was 1.9. The fold change (FC) [7] was 1.4, the inhibition [8] was 78% and the inhibition [9] was “Active”. For the same compound, the Activity (BXPC-3) was “Non-Toxic”, the pKa [10] was 2.58 and the logP [11] was 2.6. It also gave a solubility [12] of 1700 µg/mL (≈ 4640 µM), a solubility [13] of 760 µg/mL (≈ 2070 µM) and a solubility [14] of 650 µg/mL (≈ 1770 µM). For the same compound, the solubility [15] was 1400 µg/mL (≈ 3820 µM), the fraction unbound at 1 ug/ml [16] was 0.019 and the fraction unbound at 10 ug/ml [17] was 0.024. The fraction unbound at 1 ug/ml [18] was 0.029, the fraction unbound at 10 ug/ml [19] was 0.046 and the t1/2 [20] was “Stable”. The AUC(0-t) [21] was 2830 ng·h/mL, the AUC(0-inf) [22] was 2840 ng·h/mL and the MRT inf [23] was 48.6 min. For the same compound, the half-life [24] was 91.8 min, the Tmax [25] was 10.2 min and the Cmax [26] was 3890 ng/mL. For the same compound, the Activity (Mus musculus) was “Non-Toxic”.
`O=C(Nc1ccc(C(=O)O)c(O)c1)c1ccc(NC(=O)c2ccco2)cc1` gave an inhibition [1] of 100%, an IC50 [2] of 599 µM and an IC50 [3] of 482 µM. The inhibition [4] was “Active”, the inhibition [5] was “Active” and the fold change (FC) [6] was 2.5. The fold change (FC) [7] was 1.7, the inhibition [8] was 80% and the inhibition [27] was “Active”. The inhibition [28] was “Active”, the inhibition [29] was “Active” and the inhibition [30] was “Active”. For the same compound, the Activity [31] was 27%, the Activity [32] was 29% and the inhibition [9] was “Active”. For the same compound, the Activity (BXPC-3) was “Non-Toxic”.
With `O=C(Nc1ccc(C(=O)O)c(O)c1)c1ccc(N2C(=O)c3ccccc3C2=O)cc1` the inhibition [1] was 17%.
For `Cc1c(NC(=O)c2cccc(NC(=O)c3ccco3)c2)cccc1C(=O)O`, the inhibition [1] was 18%.
